Where “and” joins values, the source holds several entries; their conditions need not be identical. Equal entries are not always repeated.
Experiments:
[1] = test system: Gram positive bacteria (three Staphylococcus aureus strains); assay: Biofilm formation in polystyrene microtiter plates (crystal violet, OD595), Gram positive bacteria; type: cell-based; conditions: one day at 37 °C
Experimental: (§1) All experiments were performed by using sterile 96-wells polystyrene microtiter plates (Nunc, Nuncleon, Roskilde, Denmark) under conditions promoting biofilm formation by the different bacterial genera. The Inhibio compound preparations of the invention; 1,3-cyclohexanedione, 1,4-cyclohexanedione, cyclopentanone, 5-ethylcyclohexane-1,3-dione and 5-methyl-1,3 cyclohexanedione 98% were solved directly in Tryptic Soy Broth (TSB) 1+1 or Liquid Microbiology Broth (LB) broth without NaCl (LB^wo/NaCl) to obtain the test concentrations, i.e. from 1 mg/ml to 10 mg/ml.
Three Staphylococcus aureus strains of animal origin were used in this study. All strains were stored at −80° C. in Brain Heart Infusion Broth (BHI) (Difco, BD, Franklin Lakes, N.J., USA) supplemented with 15% glycerine (Merck KGaA, Darmstadt, Germany) and were recovered on blood agar at 37.0±1.0° C. The bacterial cultures were then transferred into TSB and were incubated statically overnight at 37.0±1.0° C. to obtain an overnight working culture. A total of 2 μl of this suspension was transferred to each 96 wells of polystyrene microtiter plates (Nunc, Nuncleon, Roskilde, Denmark) containing 198 μl TSB 1+1 with dissolved Inhibio compounds in the following concentrations: 0 mg/ml, 1 mg/ml and 10 mg/ml for 1,3-cyclohexanedione; 0 mg/ml and 10 mg/ml for 1,4-cyclohexanedione; and 0 mg/ml, 1 mg/ml, 2 mg/ml and 10 mg/ml for 5-ethylcyclohexane-1,3-dione and 5-Methyl-1,3-cyclohexanedione in the total amount of broth. Three parallels of each strain were used and the microtiter plates were incubated statically for one day, at 37±1.0° C. After incubation, OD595 was measured in a microplate photometer (Multiscan EX; Thermo Fisher Scientific Inc, Waltham, Mass., USA) before the plates were gently washed three times with 290 μl tap water. The plates were dried in room temperature before addition of 220 μl 1% crystal violet (Sigma-Aldrich, St. Louis, Mo., USA). After 30 minutes incubation in room temperature, the plates were washed three times with tap water before the addition of 220 μl ethanol:acetone (70:30 w:w) to dissolve the bound dye. The plates were incubated for 10 minutes in room temperature before OD595 was measured after the bound dye was dissolved using ethanol:acetone. For each strain, the result was calculated by subtracting the median OD595 of the three parallels of the control (test broth only) from the median OD595 of the three parallels of sample. Further, the average result of all three Gram positive strains included in the study were calculated. Three independent experiments were performed and the average was evaluated.

[2] = test system: Gram negative bacteria (Salmonella isolates); assay: Biofilm formation in polystyrene microtiter plates (crystal violet, OD595), Gram negative bacteria; type: cell-based, Salmonella ser. Typhimurium, Salmonella ser. Agona; conditions: 10 mg/ml, two days at 20 °C
Experimental: as §1
(§2) One Salmonella ser. Typhimurium (S. Typhimurium), two Salmonella ser. Agona (S. Agona) and two Escherichia coli (E. coli) isolates were used in these studies. The studies performed using 1,3-cyclohexanedione and 1,4-cyclohexanedione were done on Salmonella isolates only. The studies comparing Menthone to 1,3-cyclohexanedione were using two E. coli strains, E. coli 1242 and E. coli 1153, see FIG. 11. The Salmonella isolates were isolated from Norwegian feed factories except one S. Typhimurium strain which was a culture collection strain (ATCC 14028). The E. coli isolates were of animal origin. All strains were stored at −80° C. in BHI supplemented with 15% glycerine and were recovered on blood agar at 37.0±1.0° C. The bacterial cultures were then transferred into LB broth and incubated statically overnight at 37.0±1.0° C. to obtain an overnight working culture. A total of 30 μl of this suspension was transferred to each well in 96 wells polystyrene microtiter plates (Nunc, Nuncleon, Roskilde, Denmark) in triplets. The wells were containing 100 μl LB^wo/NaCl (bacto-tryptone 10 g/l, yeast extract 5 g/l) with 1,3-cyclohexanedione dissolved in concentration 0 mg/ml, 1 mg/ml and 10 mg/ml in the total amount of broth and 1,4-cyclohexanedione and cyclopentanone at 0 mg/ml and 10 mg/ml. The microtiter plates were incubated statically for two days, at 20±1.0° C. After incubation, OD595 was measured before the plates were gently washed one time with 150 μl tap water. The plates were dried in room temperature before addition of 140 μl 1% crystal violet (Sigma-Aldrich). After 30 minutes incubation in room temperature, the plates were washed three times with tap water before addition of 140 μl ethanol:acetone (70:30 w:w) and incubated for another 10 minutes in room temperature. OD595 was measured in a microplate photometer (Multiscan EX) after the bound dye was dissolved using ethanol:acetone. For each strain, the result was calculated by subtracting the median OD595 of the three parallels of the control (test broth only) from the median OD595 of the three parallels of sample. Further, the averages of the Gram negative strains were calculated. Three independent experiments were performed and the average was evaluated.

[3] = test system: SRB isolate ATCC 29579 Desulfovibrio vulgaris subspecies vulgaris; assay: Biofilm produced by SRB (sulphate reducing bacteria) on carbon steel coupon in fluids; type: cell-based; conditions: 10 mg/ml, 20 °C for 12 days
Experimental: One SRB isolate (the culture collection strain: ATCC 29579 Desulfovibrio vulgaris subspecies vulgaris) was tested. 1,4-cyclohexanedione and cyclopentanone were diluted in the culture medium ATCC 1249 to a concentration of 10 mg/ml (1%) and added to each their 50 ml Falcon centrifugal tube. A third tube, with 10 ml of medium only (ATCC 1249) was included as a control. 50 μl SRB starting culture was added to each of the three tubes together with a carbon steel coupon. Biofilm was formed on the coupon by incubating at 20° C. for 12 days. After incubation, the coupons were washed in 40 ml sterile saline to remove loosely adhered cells. A sample from this fluid was injected into SRB medium and blackening of the medium was visualized, showing that there were still free-floating bacteria present.

[4] = test system: E. coli 1242 and E. coli 1153; assay: Biofilm formation in microtiter plates, comparison of 1,3-cyclohexanedione and menthone; type: cell-based, Escherichia coli; conditions: 1 mg/ml, two values, one per strain (E. coli 1242, E. coli 1153)
Experimental: as §1
as §2, with “A total of 30 μl of this suspension was transferred to each well in 96 wells polystyrene microtiter plates (Nunc, Nuncleon, Roskilde, Denmark) in triplets. The wells were containing 100 μl LB^wo/NaCl (bacto-tryptone 10 g/l, yeast extract 5 g/l) with 1,3-cyclohexanedione dissolved in concentration 0 mg/ml, 1 mg/ml and 10 mg/ml in the total amount of broth and 1,4-cyclohexanedione and cyclopentanone at 0 mg/ml and 10 mg/ml. The microtiter plates were incubated statically for two days, at 20±1.0° C.” left out, “The plates were dried in room temperature before addition of 140 μl 1% crystal violet (Sigma-Aldrich). After 30 minutes incubation in room temperature, the plates were washed three times with tap water before addition of 140 μl ethanol:acetone (70:30 w:w) and incubated for another 10 minutes in room temperature.” left out

O=C1CCC(=O)CC1 [1,4-cyclohexanedione]
decrease in biofilm formation, percentage of the control ([1]; 10 mg/ml): 53%
decrease in biofilm formation, percentage of the control [2]: 91%
biofilm visualized on carbon steel coupon [3]: only scarce amount of biofilm could be visualized

CCC1CC(=O)CC(=O)C1 [5-ethylcyclohexane-1,3-dione]
decrease in biofilm formation, percentage of the control ([1]; 1 mg/ml): 55%
decrease in biofilm formation, percentage of the control ([1]; 2 mg/ml): 74%
decrease in biofilm formation, percentage of the control ([1]; 10 mg/ml): 98%

CC1CC(=O)CC(=O)C1 [5-methyl-1,3-cyclohexanedione]
decrease in biofilm formation, percentage of the control ([1]; 1 mg/ml): 32%
decrease in biofilm formation, percentage of the control ([1]; 2 mg/ml): 85%
decrease in biofilm formation, percentage of the control ([1]; 10 mg/ml): 98%

O=C1CCCC1 [cyclopentanone, Cyclopentanone]
decrease in biofilm formation, percentage of the control [2]: 77%
biofilm visualized on carbon steel coupon [3]: only scarce amount of biofilm could be visualized

CC1CCC(C(C)C)C(=O)C1 (stereo not drawn) [menthone, 2-isopropyl-5-methylcyclohexane-1-on, reference compound]
decrease in biofilm formation [4]: 27% and 48%

From patent US20190144368A1, “Compounds and compositions for biofilm prevention” (INHIBIO AS, priority 2016, published 2019)
